Experimental findings from patent publication US9249154B2, “Compounds and therapeutic use thereof for protein kinase inhibition” (priority 2008, dated 2016) are described below.

In one assay the test system is Mouse Lung Cancer (3LL). Nature of the assay: In vitro anti-cancer cell activity (cellular toxicity, SRB and MTT methods, 72 hours). The format is cell-based. The following applies: read-out: In vitro anti-cancer cell activities IC50, Mouse Lung Cancer (3LL). (Tetrazolium dyes change colour on reduction, which living cells bring about.)
Assay [1] deals with Human Ovarian cancer (A2780). Described as above. The format is cell-based. To be noted: read-out: In vitro anti-cancer cell activities IC50, Human Ovarian cancer (A2780).
For the next assay, the system named is Human colon cancer HT-29. Described as above. The format is cell-based. The following applies: read-out: In vitro anti-cancer cell activities IC50, Human colon cancer HT-29.
For assay [2], the system named is Human Gastric Cancer (BGC-823). The description is as above. Type of assay: cell-based. The following applies: read-out: In vitro anti-cancer cell activities IC50, Human Gastric Cancer (BGC-823).
The subject of assay [3] is transplanted human colon cancer HT-99. Nature of the assay: Effects on HT99 transplanted nude mice. The format is in vivo. To be noted: 60 mg/kg ip, d0, 1; for RTV (relative tumor volume) / TV dn: X ± SD; for TV dn: dn = 17 days after drug treatment.

pIC50: −log10 of the molar value. Like-named read-outs stand apart in the source and are kept apart here.

A word on the pIC50: it is the negative decadic logarithm of the IC50, by convention in mol/L. Turning to `CN(C)C(=O)c1nnc(Cc2ccoc2)c2cc(-c3ccc(Cl)cc3)sc12` [Compound 70], the pIC50 in the assay with Mouse Lung Cancer (3LL) (Mus musculus) was less than 4.00.

With `NC(=O)c1nnc(Cc2cc[nH]c2)c2cc(-c3ccc(Cl)cc3)sc12` [Compound 14, 2-(4-chlorophenyl)-4-(3-pyrrolemethy)-thieno[2,3-d]pyridazine-7-carboxylic acid amide], the negative logarithm of the IC50 (pIC50) in the assay on Mouse Lung Cancer (3LL) was 5.07; in assay [1], 5.22; in the assay with Human colon cancer HT-29 it was 4.78; in assay [2] it was 4.52.

A word on the T/C: it is the result in the treated group divided by that in the control group, in per cent. Consider `NC(=O)c1nnc(CC2CCNC2)c2cc(-c3ccc(Cl)cc3)sc12` (centres unmarked) [Compound 30], for which, in assay [3], the T/C is 57.0%, the “RTV (relative tumor volume)” value is on record as 3.78 ± 1.09 and the TV dn turned out to be 482 ± 83 mm^3.

For the molecule `NC(=O)c1nnc(CC2CCNCC2)c2cc(-c3ccc(Cl)cc3)sc12` [Compound 5, 2-(4-chlorophenyl)-4-(4-piperidinemethy)-thieno[2,3-d]pyridazine-7-carboxylic acid amide], in assay [3], the T/C was found to be 96.5%, the “RTV (relative tumor volume)” value worked out at 6.40 ± 0 and the TV dn is reported as 910 ± 0 mm^3.

For the molecule `NC(=O)c1nnc(CC2CCOC2)c2cc(-c3ccc(F)cc3)sc12` (centres unmarked) [Compound 23], the pIC50 with Mouse Lung Cancer (3LL) (Mus musculus) was less than 4.00.

For `NC(=O)c1nnc(CC2CCNC2)c2cc(-c3ccc(Cl)cc3)sc12` (centres unmarked) [Compound 31], in assay [3], the T/C worked out at 80.8%, the “RTV (relative tumor volume)” value was found to be 5.36 ± 1.94 and the TV dn turned out to be 785 ± 300 mm^3.

For the molecule `NC(=O)c1nnc(Cc2cccnc2)c2cc(-c3ccc(F)cc3)sc12` [Compound 38], the negative logarithm of the IC50 (pIC50) in the assay with Mouse Lung Cancer (3LL) (Mus musculus) was 5.50.

As to “2-(4-chlorophenyl)-4-(3-α-thiapyranmethy)-thieno[2,3-d]pyridazine-7-carboxylic acid amide [Compound 11]”, the pIC50 in the assay on Mouse Lung Cancer (3LL) was 5.07; in assay [1], 4.93; in the assay on Human colon cancer HT-29, 4.97; in assay [2], 5.03. This molecule also registered a T/C in assay [3] of 113.4%. Further, in assay [3], the “RTV (relative tumor volume)” value worked out at 7.52 ± 0.26. In assay [3], the TV dn was 1224 ± 440 mm^3.

For the molecule `NC(=O)c1nnc(Cc2ccoc2)c2cc(-c3ccc(Cl)cc3)sc12` [Compound 15, 2-(4-chlorophenyl)-4-(3-furanmethy)-thieno[2,3-d]pyridazine-7-carboxylic acid amide], in assay [2], the negative logarithm of the IC50 (pIC50) was 5.65.

For the molecule `NC(=O)c1nnc(CC2CCNC2)c2cc(-c3ccc(Br)cc3)sc12` (centres unmarked) [Compound 22], in assay [3], the T/C is 70.7%, the “RTV (relative tumor volume)” value is 4.69 ± 0.71 and the TV dn was 714 ± 127 mm^3.

As to `CN(C)C(=O)c1nnc(CC2CCCOC2)c2cc(-c3ccc(Cl)cc3)sc12` (centres unmarked) [Compound 19], in assay [3], the T/C is recorded as 68.3%, the “RTV (relative tumor volume)” value turned out to be 4.53 ± 0.82 and the TV dn is recorded as 663 ± 86 mm^3.

With `NC(=O)c1nnc(Cc2ccncc2)c2cc(-c3ccc(Cl)cc3)sc12` [Compound 13, 2-(4-chlorophenyl)-4-(4-pyridinemethy)-thieno[2,3-d]pyridazine-7-carboxylic acid amide], the negative logarithm of the IC50 (pIC50) in the assay on Mouse Lung Cancer (3LL) was 5.91; in assay [1], 5.93; in the assay on Human colon cancer HT-29 it was 6.14; in assay [2] it was 5.58.

On to `NC(=O)c1nnc(CC2CCOC2)c2cc(-c3ccc(Cl)cc3)sc12` (centres unmarked) [Compound 24], for which the pIC50 in the assay on Mouse Lung Cancer (3LL) (Mus musculus) is less than 4.00; in assay [1] (Homo sapiens), less than 4.00; in the assay on Human colon cancer HT-29 (Homo sapiens), less than 4.00; in assay [2] (Homo sapiens), 4.61.
